Columns and labels:
[1] = molecular target: Human LATS2 catalytic domain (Homo sapiens (Human), UniProt Q9NRM7); assay: LATS2 High ATP HTRF Assay; assay type: biochemical; details: no asterisk: LATS2 High ATP HTRF Assay, 5000 μM ATP, 0.05 nM LATS2
Method in brief: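 Phosphorylation of 0.5 μM STK S1 peptide at high ATP (5000 μM), 2 h at room temperature, by 0.05 nM LATS2 kinase domain/Mob1b complex after 10 min compound pre-incubation. Ki derived from HTRF-based IC50 (4-parameter logistic) by Cheng-Prusoff, ATP Km 105 μM.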

[2] = test system: TAZ nuclear translocation in SW1990 cells; assay: TAZ Nuclear Translocation Assay; assay type: cell-based; details: Homo sapiens, 4 hours
Method in brief: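 SW1990 cells in RPMI1640/10% FBS treated with compounds for 4 h at 37 °C, then fixed and immunostained for TAZ with Hoechst nuclear counterstain and imaged by high-content imaging. Read-out is the nuclear/cytoplasmic-ring fluorescence ratio, normalized to DMSO (0%) and an inhibitor control (100%); EC50 from four-parameter fit.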

Sequence of Human LATS2 catalytic domain (Q9NRM7 553-1088): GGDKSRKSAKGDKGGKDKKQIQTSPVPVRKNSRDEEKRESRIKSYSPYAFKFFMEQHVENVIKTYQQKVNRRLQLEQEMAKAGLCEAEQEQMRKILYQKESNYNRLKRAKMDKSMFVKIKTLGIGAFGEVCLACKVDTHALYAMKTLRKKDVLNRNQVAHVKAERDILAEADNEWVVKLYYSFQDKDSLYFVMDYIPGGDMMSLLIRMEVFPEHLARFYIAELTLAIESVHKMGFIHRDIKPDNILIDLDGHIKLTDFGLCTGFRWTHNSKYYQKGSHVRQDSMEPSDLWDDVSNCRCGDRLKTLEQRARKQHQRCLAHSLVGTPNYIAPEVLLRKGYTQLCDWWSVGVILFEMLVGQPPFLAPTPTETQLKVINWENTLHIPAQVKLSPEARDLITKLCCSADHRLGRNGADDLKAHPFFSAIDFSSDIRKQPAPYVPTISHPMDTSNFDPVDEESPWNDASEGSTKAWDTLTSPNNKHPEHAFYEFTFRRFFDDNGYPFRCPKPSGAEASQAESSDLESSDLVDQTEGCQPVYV
Sequence of Human LATS2 catalytic domain (Q7L9L4 whole entry partner, the tested form may be a part): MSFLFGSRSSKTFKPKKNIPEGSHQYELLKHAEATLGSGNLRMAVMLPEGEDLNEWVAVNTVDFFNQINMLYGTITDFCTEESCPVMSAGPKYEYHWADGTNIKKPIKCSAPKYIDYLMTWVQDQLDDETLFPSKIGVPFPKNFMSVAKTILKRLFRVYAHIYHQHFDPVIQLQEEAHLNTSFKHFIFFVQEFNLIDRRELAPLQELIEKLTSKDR

A Ki [1] of 0.057 nM and an EC50 [2] of 970 nM were found for OCC1CC2(CCN(c3nc(-c4ccncc4)nc4cnccc34)CC2)CN1 (stereo not shown) [Compound 196, (8-(2-(pyridin-4-yl)pyrido[3,4-d]pyrimidin-4-yl)-2,8-diazaspiro[4.5]decan-3-yl)methanol] in this work.

With Cc1n[nH]c(C)c1-c1nc(N2CCC3(CCNC3)CC2)c2ccncc2n1 [Compound 241, 2-(3,5-Dimethyl-1H-pyrazol-4-yl)-4-(2,8-diazaspiro[4.5]decan-8-yl)pyrido[3,4-d]pyrimidine] the Ki [1] was 1.4 nM and the EC50 [2] was > 10000 nM.

A Ki [1] of 0.76 nM and an EC50 [2] of 2800 nM were found for COCc1nccc2c(N3CCC4(CCNC4)CC3)nc(-c3ccncc3)nc12 [Compound 242, 8-(methoxymethyl)-2-(pyridin-4-yl)-4-(2,8-diazaspiro[4.5]decan-8-yl)pyrido[3,4-d]pyrimidine] in this work.

A Ki [1] of 1.9 nM and an EC50 [2] of 3900 nM were found for COCc1cncc2nc(-c3ccncc3)nc(N3CCC4(CCNC4)CC3)c12 [Compound 243, 5-(Methoxymethyl)-2-(pyridin-4-yl)-4-(2,8-diazaspiro[4.5]decan-8-yl)pyrido[3,4-d]pyrimidine] in this work.

A Ki [1] of 0.039 nM and an EC50 [2] of 4800 nM were found for CC(C)(O)C#Cc1nccc2c(N3CCC4(CCNC4)CC3)nc(-c3ccncc3)nc12 [Compound 245, 2-methyl-4-(2-(pyridin-4-yl)-4-(2,8-diazaspiro[4.5]decan-8-yl)pyrido[3,4-d]pyrimidin-8-yl)but-3-yn-2-ol] in this work.

A Ki [1] of 3.5 nM and an EC50 [2] of 3100 nM were found for FC(F)(F)c1cncc2nc(-c3ccncc3)nc(N3CCC4(CCNC4)CC3)c12 [Compound 246, 2-(pyridin-4-yl)-4-(2,8-diazaspiro[4.5]decan-8-yl)-5-(trifluoromethyl)pyrido[3,4-d]pyrimidine] in this work.

A Ki [1] of 0.039 nM and an EC50 [2] of 310 nM were found for CN1CCC2(CCN(c3nc(-c4ccncc4)nc4c(C#CC(C)(C)O)nccc34)CC2)C1 [Compound 247, 2-methyl-4-(4-(2-methyl-2,8-diazaspiro[4.5]decan-8-yl)-2-(pyridin-4-yl)pyrido[3,4-d]pyrimidin-8-yl)but-3-yn-2-ol] in this work.

A Ki [1] of 0.02 nM and an EC50 [2] of 110 nM were found for CC(C)Oc1cncc2nc(-c3ccncc3)nc(N3CCC4(CCNC4)CC3)c12 [Compound 248, 5-isopropoxy-2-(pyridin-4-yl)-4-(2,8-diazaspiro[4.5]decan-8-yl)pyrido[3,4-d]pyrimidine] in this work.

With Oc1cncc2nc(-c3ccncc3)nc(N3CCC4(CCNC4)CC3)c12 [Compound 249, 2-(Pyridin-4-yl)-4-(2,8-diazaspiro[4.5]decan-8-yl)pyrido[3,4-d]pyrimidin-5-ol] the Ki [1] was 0.27 nM and the EC50 [2] was > 10000 nM.

A Ki [1] of 0.033 nM and an EC50 [2] of 100 nM were found for COc1cncc2nc(-c3ccncc3)nc(N3CCC4(CCN(CC(C)(C)O)C4)CC3)c12 [Compound 250, 1-(8-(5-methoxy-2-(pyridin-4-yl)pyrido[3,4-d]pyrimidin-4-yl)-2,8-diazaspiro[4.5]decan-2-yl)-2-methylpropan-2-ol] in this work.

With [O-][n+]1ccc(-c2nc(N3CCC4(CCNC4)CC3)c3ccncc3n2)cc1 [Compound 251, 4-(4-(2,8-diazaspiro[4.5]decan-8-yl)pyrido[3,4-d]pyrimidin-2-yl)pyridine 1-oxide] the Ki [1] was 3.5 nM and the EC50 [2] was > 10000 nM.

A Ki [1] of 0.28 nM and an EC50 [2] of 120 nM were found for COc1cncc2nc(-c3ccncc3)nc(N3CCC4(CCN(CC5(O)CCC5)C4)CC3)c12 [Compound 253, 1-((8-(5-methoxy-2-(pyridin-4-yl)pyrido[3,4-d]pyrimidin-4-yl)-2,8-diazaspiro[4.5]decan-2-yl)methyl)cyclobutan-1-ol] in this work.

A Ki [1] of 0.018 nM and an EC50 [2] of 100 nM were found for C=CCOc1cncc2nc(-c3ccncc3)nc(N3CCC4(CCNC4)CC3)c12 [Compound 254, 5-(allyloxy)-2-(pyridin-4-yl)-4-(2,8-diazaspiro[4.5]decan-8-yl)pyrido[3,4-d]pyrimidine] in this work.

A Ki [1] of 0.034 nM and an EC50 [2] of 140 nM were found for COc1cncc2nc(-c3ccncc3)nc(N3CCC4(CCN(CC5COC5)C4)CC3)c12 [Compound 255, 5-Methoxy-4-(2-(oxetan-3-ylmethyl)-2,8-diazaspiro[4.5]decan-8-yl)-2-(pyridin-4-yl)pyrido[3,4-d]pyrimidine] in this work.

A Ki [1] of 0.19 nM and an EC50 [2] of 470 nM were found for C#CCCN1CCC2(CCN(c3nc(-c4ccncc4)nc4cnccc34)CC2)C1 [Compound 256, 4-(2-(but-3-yn-1-yl)-2,8-diazaspiro[4.5]decan-8-yl)-2-(pyridin-4-yl)pyrido[3,4-d]pyrimidine] in this work.

COc1[nH]ncc1-c1nc(N2CCC3(CCNC3)CC2)c2ccncc2n1 [Compound 257, 2-(5-methoxy-1H-pyrazol-4-yl)-4-(2,8-diazaspiro[4.5]decan-8-yl)pyrido[3,4-d]pyrimidine] was tested, and the Ki [1] was 8 nM and the EC50 [2] was > 10000 nM.

A Ki [1] of 1.8 nM and an EC50 [2] of 1900 nM were found for CN(C)c1cncc2nc(-c3ccncc3)nc(N3CCC4(CCNC4)CC3)c12 [Compound 258, N,N-Dimethyl-2-(pyridin-4-yl)-4-(2,8-diazaspiro[4.5]decan-8-yl)pyrido[3,4-d]pyrimidin-5-amine] in this work.

In the case of CN1CCC2(CCN(c3nc(-c4ccncc4)nc4cncc(O)c34)CC2)C1 [Compound 259, 4-(2-methyl-2,8-diazaspiro[4.5]decan-8-yl)-2-(pyridin-4-yl)pyrido[3,4-d]pyrimidin-5-ol], the Ki [1] is reported as 1.6 nM and the EC50 [2] is reported as > 10000 nM.

A Ki [1] of 0.055 nM and an EC50 [2] of 4000 nM were found for c1cc(-c2nc(N3CCC4(CCNC4)CC3)c3c(OC4COC4)cncc3n2)ccn1 [Compound 260, 5-(Oxetan-3-yloxy)-2-(pyridin-4-yl)-4-(2,8-diazaspiro[4.5]decan-8-yl)pyrido[3,4-d]pyrimidine] in this work.

A Ki [1] of 0.1 nM and an EC50 [2] of 580 nM were found for C#CCN1CCC2(CCN(c3nc(-c4ccncc4)nc4cnccc34)CC2)C1 [Compound 261, 4-(2-(prop-2-yn-1-yl)-2,8-diazaspiro[4.5]decan-8-yl)-2-(pyridin-4-yl)pyrido[3,4-d]pyrimidine] in this work.

A Ki [1] of 0.028 nM and an EC50 [2] of 250 nM were found for Cc1[nH]ncc1-c1nc(N2CCC3(CCN(C)C3)CC2)c2ccnc(Cl)c2n1 [Compound 262, 8-chloro-2-(5-methyl-1H-pyrazol-4-yl)-4-(2-methyl-2,8-diazaspiro[4.5]decan-8-yl)pyrido[3,4-d]pyrimidine] in this work.

A Ki [1] of 0.11 nM and an EC50 [2] of 1200 nM were found for COCCOc1cncc2nc(-c3ccncc3)nc(N3CCC4(CCNC4)CC3)c12 [Compound 263, 5-(2-methoxyethoxy)-2-(pyridin-4-yl)-4-(2,8-diazaspiro[4.5]decan-8-yl)pyrido[3,4-d]pyrimidine] in this work.

A Ki [1] of 0.026 nM and an EC50 [2] of 170 nM were found for COc1cncc2nc(-c3c[nH]nc3C)nc(N3CCC4(CCN(C)C4)CC3)c12 [Compound 264, 5-methoxy-2-(3-methyl-1H-pyrazol-4-yl)-4-(2-methyl-2,8-diazaspiro[4.5]decan-8-yl)pyrido[3,4-d]pyrimidine] in this work.

A Ki [1] of 0.047 nM and an EC50 [2] of 240 nM were found for COc1cncc2nc(-c3c[nH]nc3C)nc(N3CCC4(CCN(CC(C)(C)O)C4)CC3)c12 [Compound 265, 1-(8-(5-methoxy-2-(3-methyl-1H-pyrazol-4-yl)pyrido[3,4-d]pyrimidin-4-yl)-2,8-diazaspiro[4.5]decan-2-yl)-2-methylpropan-2-ol] in this work.

A Ki [1] of 0.37 nM and an EC50 [2] of 1100 nM were found for CN1CCC2(CCN(c3nc(-c4ccncc4)nc4c(Cl)nccc34)CC2)C1 [Compound 266, 8-chloro-4-(2-methyl-2,8-diazaspiro[4.5]decan-8-yl)-2-(pyridin-4-yl)pyrido[3,4-d]pyrimidine] in this work.

A Ki [1] of 0.028 nM and an EC50 [2] of 360 nM were found for FCOc1cncc2nc(-c3ccncc3)nc(N3CCC4(CCNC4)CC3)c12 [Compound 267, 5-(fluoromethoxy)-2-(pyridin-4-yl)-4-(2,8-diazaspiro[4.5]decan-8-yl)pyrido[3,4-d]pyrimidine] in this work.

A Ki [1] of 0.034 nM and an EC50 [2] of 130 nM were found for CC(C)(O)CN1CCC2(CCN(c3nc(-c4ccncc4)nc4cncc(OC5COC5)c34)CC2)C1 [Compound 268, 2-Methyl-1-(8-(5-(oxetan-3-yloxy)-2-(pyridin-4-yl)pyrido[3,4-d]pyrimidin-4-yl)-2,8-diazaspiro[4.5]decan-2-yl)propan-2-o0] in this work.

A Ki [1] of 0.034 nM and an EC50 [2] of 210 nM were found for CN1CCC2(CCN(c3nc(-c4ccncc4)nc4cncc(OC5COC5)c34)CC2)C1 [Compound 269, 4-(2-Methyl-2,8-diazaspiro[4.5]decan-8-yl)-5-(oxetan-3-yloxy)-2-(pyridin-4-yl)pyrido[3,4-d]pyrimidine] in this work.

A Ki [1] of 0.15 nM and an EC50 [2] of 860 nM were found for CN1CCC2(CCN(c3nc(-c4ccncc4)nc4cncc(OCC5COC5)c34)CC2)C1 [Compound 270, 4-(2-Methyl-2,8-diazaspiro[4.5]decan-8-yl)-5-(oxetan-3-ylmethoxy)-2-(pyridin-4-yl)pyrido[3,4-d]pyrimidine] in this work.

A Ki [1] of 0.041 nM and an EC50 [2] of 330 nM were found for C#CC(C)(O)CN1CCC2(CCN(c3nc(-c4ccncc4)nc4cnccc34)CC2)C1 (stereo not shown) [Compound 271, 2-methyl-1-(8-(2-(pyridin-4-yl)pyrido[3,4-d]pyrimidin-4-yl)-2,8-diazaspiro[4.5]decan-2-yl)but-3-yn-2-ol] in this work.

A Ki [1] of 0.31 nM and an EC50 [2] of 1100 nM were found for Clc1nccc2c(N3CCC4(CCNC4)CC3)nc(-c3ccncc3)nc12 [Compound 272, 8-chloro-2-(pyridin-4-yl)-4-(2,8-diazaspiro[4.5]decan-8-yl)pyrido[3,4-d]pyrimidine trifluoro acetate] in this work.

A Ki [1] of 0.043 nM and an EC50 [2] of 260 nM were found for COc1cncc2nc(-c3c[nH]nc3C)nc(N3CCC4(CCN(CC5COC5)C4)CC3)c12 [Compound 273, 5-methoxy-2-(3-methyl-1H-pyrazol-4-yl)-4-(2-(oxetan-3-ylmethyl)-2,8-diazaspiro[4.5]decan-8-yl)pyrido[3,4-d]pyrimidine] in this work.

From US20240174696A1, “2,8-DIAZASPIRO[4.5]DECANE COMPOUNDS” (Genentech, Inc., priority 2021, published 2024)
